Assay results published in patent US11365215B2, “Method for preventing, improving, or treating inflammatory bowel disease” (Research & Business Foundation Sungkyunkwan University, priority 2015, dated 2022).
“Also recorded” adds a separate entry of the source. Read-outs that look alike come from different tables or passages of the source. Peptide text beside a SMILES is read from it.

Key:
[1] = test system: inflammatory signaling pathway protein complex mediated by MyD88 or RIP1; experiment: Immunoprecipitation of inflammatory signaling pathway protein complex in LPS-treated RAW264.7 cells; type: cell-based; conditions: pretreated, then LPS
From the text: Specifically, using antibodies corresponding to proteins which relate to the formation of Toll-like receptors (TLRs) signaling pathway protein complex (for example, IRAK1, TRAF6, MyD88, RIP1 and Pellino-1), disruption of the formation of inflammatory signaling pathway protein complexes was affirmed by immunoprecipitation. As reference control, a relative amount of expression of β-actin from the total cell lysate was compared and presented using Western blot.
RAW264.7 macrophage cells were individually retreated with compound 1.1 (SEQ ID NO: 2) and compound 1.2, and smaducin-6, and further treated with LPS. These RAW264.7 macrophage cells were collected, lysed in a lysis butter (PBS containing 0.5% Triton X-100, 20 mM HEPES (pH 7.4), 150 mM NaCl, 12.5 mM β-glycerol phosphate, 1.5 mM MgCl2, 10 mM NaF, 2 mM DTT, 1 mM Na3O4V, 2 mM EGTA, and 1 mM Protease Inhibitor (PMSF)), and centrifuged at 13000 rpm for 10 minutes. For immunoprecipitation assays, the supernatant was incubated at 4° C. for 12 hours, with protein-A agarose beads and the antibodies corresponding to the above proteins, and the beads were subsequently washed three times with the lysis buffer. The immunoprecipitated substances were dissociated from the beads with addition of 2× sample buffer, and were boiled. The prepared samples were loaded on SDS-polyacrylamide gel (FIG. 7).

[2] = test system: experimental autoimmune encephalomyelitis; experiment: MOG-induced experimental autoimmune encephalomyelitis model; type: in vivo; conditions: EAE mice
Method: To confirm the effect of compound 1.1 (SEQ ID NO: 2) on multiple sclerosis, mice (10 weeks old, female) were sensitized with MOG35-55/[…] and PTX and an experimental autoimmune encephalomyelitis mouse model was obtained. Experimental methods were described in Oncotarget, Vol. 7 (2016), No. 13, 15382-15393, which is incorporated herein by reference.
As reference group, 10000 unit of Interferon-beta was hypodermically injected for 25 days, once every other day. Clinical score were measured and presented.

[3] = test system: G-CSF, IL-2, SCF, VEGF, CX3CL1, IGFBP5, IGFBP6, IL-1α, IL-1β, IL-6, IL-9, MCP-1, MIP-3α, IL12p40/70, MIG, TNF-α, and VCAM-1; experiment: Cytokine array (Mouse cytokine array C3) of LPS-treated RAW 264.7 macrophage cells; type: cell-based; conditions: 100 nM for 30 minutes, LPS two hours, densitometer
Method: First, RAW 264.7 macrophage cells were purchased from American Type Culture Collection (ATCC; Manassas, Va.), and were culture at a temperature of 37° C., under 5% CO2 atmosphere, using 10% Fetal Bovine Serum (FBS) and Dulbecco's Modified Eagle's Medium (DMEM) containing 1% penicillin/streptomycin.
In addition, RAW 264.7 macrophage cells cultured as described above were also divided into a 6-well plate, after 24 hours, were pretreated with 100 nM of compound 1.1 (SEQ ID NO: 2) for 30 minutes, and further treated with LPS for two hours. The above cell culture was collected and, using a cytokine array (Mouse cytokine array C3, RayBiotech), changes in amounts of cytokine and chemokine were quantified by a densitometer. The cytokines and chemokines detected by the compound of the present invention included G-CSF, IL-2, SCF, VEGF, CX3CL1, IGFBP5, IGFBP6, IL-1α, IL-1β, IL-6, IL-9, MCP-1, MIP-3α, IL12p40/70, MIG, TNF-α, and VCAM-1.

AP-1 = experiment: AP-1-Luc reporter luciferase assay in LPS-treated RAW 246.7 cells; type: cell-based; conditions: 100 nM for 30 minutes, LPS 100 ng/ml 2 hours
Method: RAW 246.7 macrophage cells were transfected with AP-1-Luc reporter plasmid as described in Example 2.3. After 24 hours, the transfected cells with AP-1-Luc reporter plasmid were pretreated with compound 1.1 (SEQ ID NO: 2) (100 nM), IRAK1/4 inhibitor (25 μM), and smaducin-6 (100 nM) for 30 minutes, and then further treated with LPS (100 ng/ml) for 2 hours.

[4] = test system: chemokines (CCL20, CCL2 and CX3CL1); experiment: Chemokine expression in large intestine tissues of DSS chronic colitis mice (Real-Time PCR); type: in vivo; conditions: oral 100 mg/kg daily for 10 days, sulfasalazine 500 mg/kg as comparison
Method: Meanwhile, as shown in FIGS. 11B-11D, mice suffering from chronic colitis induced by DSS were orally administered sulfasalazine in an amount of 500 mg/kg and compound 1.1 (SEQ ID NO: 2) in an amount of 100 mg/kg daily for 10 days. After 10 days of administration, large intestine tissues were obtained from the mice, and expression of chemokines (CCL20, CCL2 and CX3CL1) in the tissues was measured using real-time polymerase chain reaction (Real-Time PCR) as described above.

[5] = Tissue distribution after oral administration; type: in vivo; conditions: rat, oral 10 mg/kg
Method: Compound 1.1 (SEQ ID NO: 2) was orally administered to a rat at dose of 10 mg/kg, and after 2 hours and 8 hours, concentrations of compound 1.1 (SEQ ID NO: 2) were measured in the small intestinal tissue, large intestinal tissue, appendix tissue, retrimentum in small intestine and retrimentum in large intestine.

[6] = test system: ARPE-19 cells (Nox-4, VEGF, VEGFR1, VEGFR2, Ang1, Ang2, Tie-2, EPO, EPOR); experiment: Western blot of angiogenesis related factors in high-glucose ARPE-19 cells; type: cell-based, human; conditions: 30 mM glucose 48 hours, 10 nM and 50 nM
Method: ARPE-19 cells were treated with 5.5 mM of glucose as reference control. For experiment group, the ARPE-19 cells were treated with 30 mM of glucose for 48 hours to induce high blood glucose condition, and simultaneously treated with DMSO, compound 1.1 (SEQ ID NO: 2) (10 nM), and compound 1.1 (SEQ ID NO: 2) (50 nM). Changes in expression of Nox-4, VEGF, VEGFR1, VEGFR2, Ang1, Ang2, Tie-2, EPO, and EPOR proteins were measured by Western blot analysis.

[7] = test system: MAPK signaling pathway proteins (ERK1/2, JNK, p38); experiment: Western blot of MAPK signaling pathway protein phosphorylation in LPS-treated BMDM cells; type: cell-based; conditions: 100 pM, 1 nM, 100 nM, LPS 2 hours
Method: BMDM cells were pretreated with DMSO, reference compound 1 (SEQ ID NO: 16), compound 1.1 (SEQ ID NO: 2) and smaducin-6 at various concentrations of 100 pM, 1 nM and 100 nM and then further treated with LPS 2 hours. Thereafter, Western blot analysis was performed.

CCCCCCCCCCCCCCCC(=O)N1CCC[C@H]1C(=O)N1CCC[C@H]1C(=O)NCC(=O)N[C@@H](Cc1ccc(O)cc1)C(=O)O [compound 1.1, (S)-3-(4-hydroxyphenyl)-2-(2-((S)-1-((S)-1-palmitoylpyrrolidine-2-carbonyl)pyrrolidine-2-carboxamido)acetamido)propanoic acid] (HELM PEPTIDE1{[CCCCCCCCCCCCCCCC(=O)[*:2]].P.P.G.Y}$$$$V2.0)
formation of inflammatory signaling pathway protein complex mediated by MyD88 or RIP1 [1]: disrupted | changes in body weights ([2]; compared to the EAE disease model group): did not have reduced weight | clinical score / treatment effect ([2]; hypodermic 1 mg/kg and 40 mg/kg every other day for 25 days, vs interferon-beta 10000 unit): effective in the treatment for multiple sclerosis; also recorded: the same or greater treatment effect and safety | expression of cytokines and chemokines induced by LPS (G-CSF, IL-2, SCF, VEGF, CX3CL1, IGFBP5, IGFBP6, IL-1α, IL-1β, IL-6, IL-9, MCP-1, MIP-3α, IL12p40/70, MIG, TNF-α, VCAM-1) [3]: suppressed as statistically meaningful | AP-1-Luc luciferase activity (MAPK signaling pathway) (AP-1): did not suppress MAPK signaling pathways | expression of chemokines (CCL20, CCL2 and CX3CL1) in large intestine tissues [4]: effective chemokine blockers | concentration at 2 h ([5]; appendix tissue, 2 hours, read-out: Concentration in appendix tissue): 22.7 ± 2.56 ng/mL | concentration at 8 h ([5]; appendix tissue, read-out: Concentration in appendix tissue): 48.2 ± 46 ng/mL | concentration at 2 h ([5]; large intestinal tissue, 2 hours, read-out: Concentration in large intestinal tissue): 30 ± 10 ng/mL | concentration at 8 h ([5]; large intestinal tissue, read-out: Concentration in large intestinal tissue): 33.2 ± 28.8 ng/mL | Concentration in small intestinal tissue ([5]; 2 hours): 75 ± 70.2 ng/mL | concentration at 8 h ([5]; retrimentum in large intestine, read-out: Concentration in retrimentum in large intestine): 1280 ± 52.7 ng/mL | concentration at 2 h ([5]; retrimentum in small intestine, 2 hours, read-out: Concentration in retrimentum in small intestine): 1120 ± 217 ng/mL | concentration at 8 h ([5]; retrimentum in small intestine, read-out: Concentration in retrimentum in small intestine): 876 ± 900 ng/mL | concentration at 8 h ([5]; small intestinal tissue, read-out: Concentration in small intestinal tissue): 78.1 ± 59.9 ng/mL | expression of Ang1 and Tie-2 [6]: increased according to increased concentration | expression of Nox4, VEGF, VEGFR1,2, Ang2, EPO and EPOR [6]: reduced | phosphorylation of MAPK/ERK signaling pathway proteins (ERK1/2, JNK, p38) [7]: not related to suppressing phosphorylation
